From patent publication US20200063108A1, “THREE-DIMENSIONAL TISSUE STRUCTURES” (Dana-Farber Cancer Institute, Inc., priority 2017, published 2020)

Experiments:
Type in all cases: cell-based
[1] = system: breast cancer patient-derived 3-D organoids; assay: Regrowth of breast cancer patient-derived 3-D organoids after docetaxel washout; conditions: 100 nM for 10 days, then 8 weeks after washout
Protocol: FIG. 11: Breast cancer patient-derived 3-D organoids treated with DMSO-control (left) or 100 nM Docetaxel (center) for 10 days, and 8 weeks after docetaxel washout (right).

[2] = system: MDA-MB-231 2-D cultures; assay: Longitudinal exposure of MDA-MB-231 2-D cultures to cytotoxic drugs; conditions: 100 nM, 2D culture
Protocol: (§1) FIG. 1: Right: Longitudinal exposure of MDA-MB-231 3-D organoids and 2-D cultures to cytotoxic drugs (100 nM). […] Left: H&E staining of day-15 drug-refractory MDA-MB-231 organoids and respective control.
(§2) Viability is determined by methods known in the art. A preferred method to determine cell viability is the measurement of bioluminescence in cells stably transfected with the luciferase expression vector upon addition of the luciferase substrate. An alternative method to determine cell viability is the measurement of fluorescence in cells stably transfected with the expression vectors of fluorescent protein (e.g. GFP or RFP). Alternatively, the cell viability can be measured by ATP-based assays; for example the Cell-Titer Glow assay. Alternatively, the cell viability can be measured by colorimetric assays, for example the MTT assay. Alternatively, cell viability can be measured by conventional or automated microscopy methods as determined by the size and shape of the cancer organoids. Alternatively, cell viability can be measured by assays measuring mitochondrial function such as the BH3 profiling assay. […]

[3] = system: MDA-MB-231 3-D organoids; assay: Longitudinal exposure of MDA-MB-231 3-D organoids to cytotoxic drugs; conditions: 100 nM, 3D culture spheroids
Protocol: as §1, §2

[4] = system: drug-refractory prostate cancer 3-D organoids; assay: Re-exposure of drug-refractory prostate cancer 3-D organoids to afatinib and vinblastine; conditions: re-exposed to afatinib and vinblastine (100 nM) 5 days after first exposure drug-washout
Protocol: FIG. 10: Afatinib-refractory and vinblastine-refractory prostate cancer 3-D organoids longitudinally exposed to afatinib and vinblastine (100 nM) 5 days after the first exposure drug-washout.

[5] = system: prostate cancer patient-derived 3-D organoids; assay: Exposure of prostate cancer patient-derived 3-D organoids to cytotoxic drugs; conditions: 100 nM, 3D conditions with Wnt-stimulator R-spondin, in vitro
Protocol: FIG. 2. Left: Exposure of prostate cancer patient-derived 3-D organoids, cultured in 3D conditions in the presence of Wnt-stimulator R-spondin, to cytotoxic drugs (100 nM; vinblastine highlighted with red) and validation of vinblastine response in the respective patient-derived xenograft (PDX) model. […] Right: Histological similarities of in-vitro vs. in-vivo drug-refractory malignant foci.
as §2

| Structure (SMILES) | regrowth of drug-refractory organoids after drug washout [1] | cell killing (viability curve) [2] | cell killing (viability curve) [3] | cross-resistance of organoids refractory to the named drug [4] | cell viability curve [5] |
| --- | --- | --- | --- | --- | --- |
| CC(=O)O[C@@]12CO[C@@H]1C[C@H](O)[C@@]1(C)C(=O)[C@H](O)C3=C(C)[C@@H](OC(=O)[C@H](O)[C@@H](NC(=O)OC(C)(C)C)c4ccccc4)C[C@@](O)([C@@H](OC(=O)c4ccccc4)[C@H]21)C3(C)C [docetaxel] | ability of drug-refractory organoid to regenerate fully-grown organoids | kills virtually all the cells | only a fraction of the cells |  |  |
| CC[C@]1(O)C[C@@H]2CN(CCc3c([nH]c4ccccc34)[C@@](C(=O)OC)(c3cc4c(cc3OC)N(C)[C@H]3[C@@](O)(C(=O)OC)[C@H](OC(C)=O)[C@]5(CC)C=CCN6CC[C@]43[C@@H]65)C2)C1 [vinblastine] |  |  |  | cross-resistance | cell viability curve plateauing |
